The results in this text go back to ChEMBL document CHEMBL5727311, “Heterobicyclic N-aminophenyl-amides as inhibitors of histone deacetylase” (2019).

For the experiment, the target named is Histone deacetylase 2 (Homo sapiens, UniProt Q92769). Description: Reporter Displacement Assay: HDAC2 containing a C-terminal HIS-Tag (Proteros) and fluorescently-labeled anti-HIS-antibody are diluted in one vial in assay buffer 50 mM Tris, pH 8.0, 1 mM DTT, 150 mM NaCl, and 0.01% Tween20. Components are pre-incubated for 30 min, then a small volume of reporter probe (Proteros) is added from a highly concentrated stock and incubation is continued for another 30 min. Final concentrations after adding the reporter probe amount to 20 nM HDAC2, 4 nM antibody, and 180 nM probe.

Molecules are shown by their SMILES.

Sequence of Histone deacetylase 2 (Q92769 whole entry): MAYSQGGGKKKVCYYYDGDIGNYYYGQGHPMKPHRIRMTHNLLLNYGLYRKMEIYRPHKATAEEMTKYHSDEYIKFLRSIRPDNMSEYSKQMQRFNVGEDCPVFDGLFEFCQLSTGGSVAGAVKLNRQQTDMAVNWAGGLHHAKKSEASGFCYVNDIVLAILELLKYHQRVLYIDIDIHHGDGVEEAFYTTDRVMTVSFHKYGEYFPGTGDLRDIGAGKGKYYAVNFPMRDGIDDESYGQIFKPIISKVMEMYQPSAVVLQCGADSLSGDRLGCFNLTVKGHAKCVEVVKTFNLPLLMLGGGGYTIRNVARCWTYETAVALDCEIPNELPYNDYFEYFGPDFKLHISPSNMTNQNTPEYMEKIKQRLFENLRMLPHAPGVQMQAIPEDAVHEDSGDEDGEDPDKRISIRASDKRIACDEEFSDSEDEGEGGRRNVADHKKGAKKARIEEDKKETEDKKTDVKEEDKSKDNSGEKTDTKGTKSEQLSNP

The molecule `Nc1ccc(-c2ccncc2)cc1NC(=O)N1Cc2cncnc2C1` registered a Kd of under 100 nM.
